From ChEMBL document CHEMBL1201862, “PubChem BioAssay data set” (2004) come the findings set out here.

Some test systems named below: RPMI-8226; SNB-19; HCT-116; T47D; TK-10; MCF7; SR; U-251; BT-549; MDA-MB-435; EKVX; OVCAR-8; UACC-257; MDA-MB-231; HCT-15; PC-3; SK-MEL-5; LOX IMVI; SF-268; SN12C.
Assay in all cases: NCI tumour cell line growth inhibition, 48 h

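48-hour exposure; five concentrations; linearly interpolated endpoints. GI50 = concentration required for 50% inhibition of growth.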 The source made the active and inactive calls. No stated cut-off is given here; in the data, active = GI50 up to about 1.1 µM and inactive = higher.

In the case of `S=C(N/N=C(/c1ccccc1)c1ccccn1)N1CCCCC1`, the GI50 in the assay with RPMI-8226 was < 0.0202 µM (active); with SNB-19, 0.966 µM (active); in the assay with HCT-116, 0.01 µM (active); with T47D, 0.0927 µM (active); in the assay on TK-10, 0.114 µM (active); in the assay on MCF7 it was 0.0425 µM (active). In addition, the GI50 in the assay on SR is < 0.0166 µM (active); in the assay on U-251, < 0.0244 µM (active); with BT-549, 1.25 µM (inactive); in the assay on MDA-MB-435 it was 0.134 µM (active); with EKVX it was < 0.0318 µM (active); in the assay on OVCAR-8 it was < 0.0281 µM (active). Besides, the GI50 in the assay with UACC-257 was < 0.0183 µM (active); with MDA-MB-231, 0.0273 µM (active); in the assay with HCT-15, less than 0.0234 µM; in the assay on PC-3 it was < 0.0151 µM (active); in the assay on SK-MEL-5, < 0.0249 µM (active).

Turning to `COC(=O)c1c(O)ccc2c1c1c(n2-c2ccc(OC)cc2)C(=O)c2ccccc2C1=O`, the GI50 in the assay on RPMI-8226 is 9.73 µM (inactive); in the assay with SNB-19, 20.6 µM (inactive); in the assay on HCT-116 it was 16.9 µM (inactive); with T47D it was 11.7 µM (inactive); in the assay with TK-10, 12 µM (inactive); with MCF7, 16.6 µM (inactive). Moreover, the GI50 in the assay on U-251 is 13 µM (inactive); in the assay on BT-549, 22 µM (inactive); in the assay on LOX IMVI, 21.7 µM (inactive); with SF-268, 14.8 µM (inactive); in the assay on MDA-MB-435, 66.8 µM (inactive); in the assay on EKVX, 16.6 µM (inactive). Moreover, the GI50 in the assay with OVCAR-8 is 12.6 µM (inactive); with UACC-257, 64.9 µM (inactive); in the assay on MDA-MB-231, 16.5 µM (inactive); in the assay with SN12C, 28.9 µM (inactive); in the assay on HCT-15 it was 18.3 µM; in the assay with PC-3 it was 20.7 µM (inactive). Also, in the assay on SK-MEL-5, the GI50 is 44.3 µM (inactive).

Consider `COc1cc(/C=C/C(=O)N[C@@H]2C(=O)N3[C@@H]2SC(C)(C)[C@@H]3C(=O)O)cc(OC)c1OC`, for which the GI50 in the assay with RPMI-8226, in the assay with SNB-19, in the assay on HCT-116, in the assay with T47D, with TK-10 and with MCF7 was > 100 µM (inactive) each time. In addition, the GI50 with U-251, in the assay with BT-549, in the assay with LOX IMVI, in the assay on SF-268, with MDA-MB-435 and in the assay on EKVX was > 100 µM (inactive) each time. Further, the GI50 in the assay with OVCAR-8 was > 100 µM (inactive); in the assay with UACC-257, > 100 µM (inactive); in the assay with MDA-MB-231, > 100 µM (inactive); in the assay with SN12C it was > 100 µM (inactive); in the assay with HCT-15, greater than 100 µM; in the assay with PC-3, > 100 µM (inactive). Besides, the GI50 with SK-MEL-5 is > 100 µM (inactive).

For the molecule `C[N+](C)(C)C1=NNC2=Nc3ccccc3SC2=C1`, the GI50 in the assay on RPMI-8226 is 12.9 µM (inactive); in the assay on SNB-19 it was 26.5 µM (inactive); in the assay with HCT-116 it was 13.9 µM (inactive); in the assay on T47D, 4.11 µM (inactive); in the assay with TK-10, 37.1 µM (inactive); with MCF7, 18.6 µM (inactive). The GI50 with U-251 was 18.6 µM (inactive); in the assay with BT-549 it was 28.6 µM (inactive); with LOX IMVI, 18.8 µM (inactive); with SF-268, 35 µM (inactive); in the assay with MDA-MB-435, 22.2 µM (inactive); with EKVX, 4.92 µM (inactive). The GI50 with OVCAR-8 was 18.4 µM (inactive); in the assay with UACC-257 it was 23 µM (inactive); in the assay with MDA-MB-231 it was 14.6 µM (inactive); in the assay on SN12C, 21.9 µM (inactive); in the assay on HCT-15, 17.5 µM; in the assay on PC-3 it was 15.1 µM (inactive). The GI50 in the assay on SK-MEL-5 was 15.1 µM (inactive).

Turning to `C/C=C/[C@@H]1[C@H]2C(=O)[C@]3(Cl)[C@@H](/C=C/C)[C@@H]3C(=O)[C@@]12Cl`, the GI50 with SNB-19, in the assay on HCT-116, in the assay with T47D, in the assay with TK-10, with MCF7 and in the assay on SR was > 100 µM (inactive) throughout. In addition, the GI50 with U-251 was 85.3 µM (inactive); in the assay on BT-549 it was > 100 µM (inactive); with LOX IMVI, > 100 µM (inactive); in the assay with SF-268, > 100 µM (inactive); with MDA-MB-435 it was > 100 µM (inactive); in the assay with EKVX it was > 100 µM (inactive). Also, the GI50 in the assay with OVCAR-8 was > 100 µM (inactive); in the assay on UACC-257, > 100 µM (inactive); in the assay with MDA-MB-231 it was 94.2 µM (inactive); in the assay with SN12C, > 100 µM (inactive); in the assay on HCT-15, greater than 100 µM; in the assay with PC-3 it was > 100 µM (inactive). The GI50 with SK-MEL-5 was > 100 µM (inactive).

As for `Cc1ccc(/N=C/C=C(\Nc2ccc(C)cc2)c2ccc3ccccc3c2)cc1`, the GI50 in the assay on RPMI-8226 is 0.536 µM (active); in the assay with SNB-19 it was 1.68 µM (inactive); in the assay on HCT-116 it was 0.434 µM (active); with T47D, 1.41 µM (inactive); in the assay with TK-10 it was 1.2 µM (inactive); in the assay with MCF7, 0.515 µM (active). The GI50 in the assay on SR was 0.39 µM (active); in the assay on U-251, 0.738 µM (active); with BT-549, 2.33 µM (inactive); with LOX IMVI, 0.456 µM (active); with SF-268 it was 2.19 µM (inactive); in the assay with MDA-MB-435, 0.203 µM (active). Also, the GI50 with OVCAR-8 was > 100 µM (inactive); with UACC-257, 0.501 µM (active); in the assay on MDA-MB-231, 0.388 µM (active); in the assay on HCT-15, 0.45 µM; in the assay with PC-3, 1.02 µM (active); with SK-MEL-5, 0.482 µM (active).

For `C=C(C(=O)OC)[C@H]1CC/C(C)=C/CC[C@@](C)(O)C=CC[C@@]2(C)O[C@@H]2C1`, the GI50 with RPMI-8226 was 16.1 µM (inactive); in the assay on SNB-19, > 100 µM (inactive); with HCT-116, 18.8 µM (inactive); in the assay on T47D, 37.3 µM (inactive); in the assay on TK-10 it was 40.6 µM (inactive); in the assay on MCF7, 40.8 µM (inactive). Also, the GI50 was 9.93 µM (inactive) with SR; 40.4 µM (inactive) with U-251; 76.2 µM (inactive) in the assay on BT-549; 19.6 µM (inactive) in the assay on SF-268; 17.3 µM (inactive) in the assay on MDA-MB-435; 20.8 µM (inactive) in the assay with EKVX. For the same molecule, the GI50 with OVCAR-8 was 13.9 µM (inactive); with UACC-257, 27.5 µM (inactive); in the assay with MDA-MB-231, 56.9 µM (inactive); in the assay with SN12C, 47.4 µM (inactive); in the assay on HCT-15 it was 24.2 µM; with PC-3 it was 44.4 µM (inactive). The GI50 in the assay on SK-MEL-5 is 1.04 µM (active).

In the case of `NC(Cc1cc(I)c(Oc2ccc(O)c(I)c2)c(I)c1)C(=O)O` (stereo unspecified) [RATHYRONINE], the GI50 with RPMI-8226 was 29.9 µM (inactive); with SNB-19, 80.9 µM (inactive); in the assay on HCT-116, > 100 µM (inactive); with T47D, 81.7 µM (inactive); in the assay with TK-10, 42 µM (inactive); with MCF7, 41.6 µM (inactive). The GI50 in the assay with U-251 is 43.4 µM (inactive); in the assay on BT-549 it was 61.1 µM (inactive); in the assay with LOX IMVI, 34.8 µM (inactive); in the assay on SF-268 it was 42.6 µM (inactive); in the assay on MDA-MB-435, > 100 µM (inactive); in the assay with EKVX, > 100 µM (inactive). Further, the GI50 was > 100 µM (inactive) in the assay with OVCAR-8; > 100 µM (inactive) in the assay with UACC-257; 29.3 µM (inactive) with MDA-MB-231; > 100 µM (inactive) with SN12C; greater than 100 µM with HCT-15; > 100 µM (inactive) with PC-3. For the same molecule, the GI50 with SK-MEL-5 is 37.6 µM (inactive).

As to `Nc1ccc(Oc2ccc(C34CC5C6CC7(c8ccc(Oc9ccc(N)cc9)cc8)CC5C(C3)C(C7)C6C4)cc2)cc1`, the GI50 in the assay with RPMI-8226, with SNB-19, with HCT-116, in the assay with T47D, with TK-10 and in the assay with MCF7 was > 100 µM (inactive) each time. For the same molecule, the GI50 in the assay with U-251, with BT-549, in the assay on LOX IMVI, in the assay on SF-268, in the assay on MDA-MB-435 and in the assay with EKVX was > 100 µM (inactive) each time. Further, the GI50 with OVCAR-8 was > 100 µM (inactive); with UACC-257, > 100 µM (inactive); with MDA-MB-231 it was > 100 µM (inactive); with SN12C it was > 100 µM (inactive); with HCT-15 it was greater than 100 µM; in the assay with PC-3, > 100 µM (inactive). Also, the GI50 in the assay with SK-MEL-5 is > 100 µM (inactive).

`COC(=O)c1cn(CCCCO)nn1`: the GI50 with SNB-19 is > 100 µM (inactive); in the assay with HCT-116, > 100 µM (inactive); in the assay on T47D, 3.65 µM (inactive); in the assay on TK-10 it was > 100 µM (inactive); with MCF7 it was > 100 µM (inactive); with SR, > 100 µM (inactive). Besides, the GI50 in the assay on U-251, with BT-549, in the assay on LOX IMVI, in the assay on SF-268, in the assay on MDA-MB-435 and in the assay with EKVX was > 100 µM (inactive) throughout. Also, the GI50 with OVCAR-8 is > 100 µM (inactive); in the assay with UACC-257, > 100 µM (inactive); in the assay on MDA-MB-231, > 100 µM (inactive); in the assay on SN12C, > 100 µM (inactive); in the assay on HCT-15, greater than 100 µM; in the assay with PC-3, > 100 µM (inactive). Besides, the GI50 in the assay with SK-MEL-5 was > 100 µM (inactive).

Regarding `Cc1cc(-c2ccc(C(=O)C(c3ccccc3)(c3ccccc3)c3ccccc3)[nH]2)on1`, the GI50 was 14.4 µM (inactive) in the assay with RPMI-8226; 19 µM (inactive) with SNB-19; 12.5 µM (inactive) with HCT-116; 37.8 µM (inactive) in the assay with T47D; 18.2 µM (inactive) in the assay with MCF7; 2.17 µM (inactive) in the assay with SR. For the same molecule, the GI50 was 12.9 µM (inactive) with U-251; 18.7 µM (inactive) with BT-549; 19.5 µM (inactive) in the assay on LOX IMVI; 18.7 µM (inactive) in the assay with SF-268; 20.1 µM (inactive) with MDA-MB-435; 13.2 µM (inactive) in the assay with EKVX. Besides, the GI50 was 17.5 µM (inactive) in the assay on OVCAR-8; 32 µM (inactive) in the assay with UACC-257; 19.7 µM (inactive) in the assay on MDA-MB-231; 19.1 µM (inactive) in the assay with SN12C; 17.5 µM in the assay with HCT-15; 15.2 µM (inactive) with PC-3. The GI50 in the assay on SK-MEL-5 was 12.7 µM (inactive).
